This is an account of results in US20090099218A1, “SYNTHESIS OF NOVEL TUBULIN POLYMERIZATION INHIBITORS: BENZOYLPHENYLUREA (BPU) SULFUR ANALOGS” (priority 2007, published 2009).

One test concerns Panc1. The experiment in a line: MTT growth inhibition, pancreatic cell line Panc1. It is filed as cell-based. The settings on record: for IC50: Homo sapiens, PANC-1, MTT assay, 96 h treatment, average of three independent experiments. As for the experimental part: (§1) Eight of these analogs 6d, 6h, 6n, 6g, 7b, 7d, 8g, and 8h were tested for their cytotoxicity in seven pancreatic cell lines ASPC1, Panc1, Panc203, Panc430, Pane 1005, MiaPaca2, and HS766T using MTT assay. Cells were trypsinized, seeded at 5×10^3 cells/well in 96-well plate and allowed to grow for 24 hours before the treatment with exponential increasing concentrations of drugs in the presence of 10% FBS. After a 96-hours period of treatment, 20 μl of MTT solution (5 mg/ml in PBS) were added to each well, and the plates were then incubated for 3 hours at 37° C. Medium was then replaced with 100 μl of DMSO per well. Plates were shaken and the optical density was measured at 570 nm using a multiwell plate reader (Bio-Rad, Model 550, Bio-Rad Inc., Hercules, Calif.). Each experiment was performed in triplicate for each drug concentration and was carried out independently at least 3 times. The IC50 value was defined as the concentration needed for a 50% reduction in the absorbance calculated based on the survival curves. Response to drug treatment was assessed by standardizing treatment groups to untreated controls. Compounds activity was compared with compound 1.
(§2) Table 2 (Growth Inhibition of Pancreatic Cancer Cell Lines by BPU and BPTU Analogues (IC50) a) compares the cytotoxicity of a series of new derivatives against a panel of seven pancreatic cancer cell lines, as determined by MTT assay. See, Mosmann, T., J. Immunol. Methods 65:55-63 (1983).

A further test has as its system Miapaca2. Put plainly: MTT growth inhibition, pancreatic cell line Miapaca2. In kind it is cell-based. The following applies: for IC50: Homo sapiens, MIA PaCa-2, MTT assay, 96 h treatment, average of three independent experiments. As for the experimental part: as §1, §2
On the technique in general: Tetrazolium dyes change colour on reduction, which living cells bring about.

The subject of the next test is HS766. The experiment in a line: MTT growth inhibition, pancreatic cell line HS766. In kind it is cell-based. The following applies: Homo sapiens, Hs 766; MTT assay, 96 h treatment; average of three independent experiments. The procedure:
as §1, §2

The next test concerns CWR22R. The experiment in a line: MTT growth inhibition, prostate cancer cell line CWR22R. In kind it is cell-based, human. The following applies: for IC50: Homo sapiens, 22Rv1, MTT assay, average of three independent experiments.
The next test concerns LnCaP. The experiment in a line: MTT growth inhibition, prostate cancer cell line LnCaP. In kind it is cell-based, human. The following applies: for IC50: Homo sapiens, LNCaP, MTT assay, average of three independent experiments. The procedure:
(§3) This MTT assay was carried using human prostate cancer cell lines CWR22R, LAPC-4 and LnCap using Promega cell titer 96 nonradioactive cell proliferation kits. Cells were trypsinized and centrifuged at 1000 rpm for 5 minutes and the supernatant was aspirated. Cells were resuspended with HBSS to a concentration of 10^6/ml. Cell suspension was diluted in serum containing medium to plate 2000 cells/well/0.2 ml. Cell suspension was transferred to sterile solution basin. Cells were plated using multichannel pipette set at 200 μl and incubated overnight for attachment. One plate was prepared for day 0 MTT assay as follows: 100 μl of media was removed from each well using multichannel pipette and 15 μl of MTT reagent was added. Plates were incubated at 37° C. for 4 hrs. […] of STOP solution was added to each well and incubated at room temperature for 1 hour. Absorbance was measured at 570 and 650 nm on plate reader. All the media from the remaining plates were carefully removed and the cells were treated with the media containing drug. MTT assays were done on days 0, 3, 5 and 7. In the preliminary screening […] BPU sulfur analogs 6l, 6h, 6n, 7d and 8h were screened and their activity was compared with compound 1.
Compounds with significant inhibitory activity in pancreatic cancer cells were further evaluated against prostate cancer cell lines in the MTT assay, (Mosmann, T., J. Immunol. Methods 65:55-63 (1983)) and the results were compared to those for compound 1 (Table 3).

Another test concerns tubulin. Put plainly: Inhibition of tubulin polymerization. It is filed as biochemical. The settings on record: for IC50: Tubulin was at 10 μM, read-out: tubulin IC50 ± SD (inhibition of tubulin polymerization). As for the experimental part: Briefly, tubulin polymerization was followed turbidimetrically at 350 nm in Beckman model DU7400 and DU7500 recording spectrophotometers equipped with electronic temperature controllers. […] Samples were pre-incubated for 15 min at 30° C. and chilled on ice. GTP (final concentration, 0.4 mmol/L) was added to each reaction mixture, and these were placed in cuvettes held at 0° C. Baselines were established, the temperature was raised to 30° C.

Test [1] concerns 11 pancreatic cancer cell line panel. Put plainly: Clonogenic growth, pancreatic cancer cell line panel. In kind it is cell-based. The following applies: doses above 0.5 μmol/L. The procedure: The cell lines ASPC1, MiaPaca2, HS766T, and L36PL were obtained from the American Tissue Culture Collection and are derived from pancreas carcinomas. The cell lines Panc1, Panc203, and Panc1005 are low-passage pancreas cell lines. The cell lines XPA3 and XPA4 are lowpassage. The cell lines E3LZ10 and E3JD13 are lowpassage pancreas cell lines. For clonogenic assessment, 500 cells per well were seeded in six-well plates with enriched RPMI (10% fetal bovine serum+1% penicillin/streptomycin) and exposed to increasing drug concentrations for 96 h. After this, the drug was removed, and the cells were allowed to grow for 14 days before manual colony counting. Each experiment was done in duplicate for each drug concentration and was carried out independently at least thrice. For MAPT protein and mRNA expression analysis, the cell lines were grown in six-well plates with enriched RPMI. When the cells reached a 60% to 70% confluence, they were washed twice with chilled PBS; lysis buffer was added to the plates; and the cells were scraped for protein extraction. An identical experimental set was lysed with RLT (Qiagen) for mRNA extraction.
Clonogenic growth was impaired at concentrations between 0.01 and 0.5 μmol/L (FIG. 35B), with no colony formation at higher doses in 9 of the 11 cell lines. […] Two isoforms of MAPT protein were detected (45 and 65 kDa). […]

In test [2] the test system is prostate cancer cell lines CWR22R, LAPC-4 and LnCap. The experiment in a line: MTT growth inhibition, prostate cancer cell line panel. In kind it is cell-based, human. The following applies: for potency relative to compound 1, prostate cell lines (preliminary screening): CWR22R, LAPC-4, LnCap. The procedure:
as §3

With `O=C(NC(=O)c1ccccc1[N+](=O)[O-])Nc1ccc(Sc2ncc(Br)cn2)cc1` [Compound 6n, 1-[4-(5-Bromopyrimidin-2-ylsulfanyl)phenyl]-3-(2-nitrobenzoyl)-urea], the IC50 was 85 nM in the test on Panc1; 86 nM with Miapaca2; 88 nM in the test with HS766; 50 nM with CWR22R; 50 nM with LnCaP; 2100 nM in the test with tubulin. For the same compound, the IC50 in test [2] (Homo sapiens, all prostate cell lines, read-out: IC50 against all prostate cell lines) came out at 50 nM. Moreover, the “increase in potency over 6m” value with Panc1 (Panc1) was found to be 8 fold; with Miapaca2 (Mia-paca2), 8 fold; in the test with CWR22R (CWR22R), 100 fold; in the test with LnCaP (LnCap), 20 fold. The “potency as inhibitor of tubulin assembly relative to 7d” value with tubulin was “twice as potent”. In addition, the “cell lines with no colony formation at higher doses” value in test [1] is reported as 9 of the 11. In addition, in test [2], the “potency relative to compound 1, prostate cell lines (preliminary screening)” value is listed as 20 times.

As to `Nc1ccccc1C(=O)NC(=O)Nc1ccc(Sc2ncc(Br)cn2)cc1` [Compound 7d], the IC50 is 90 nM with Panc1; 95 nM with Miapaca2; 700 nM in the test on HS766; 500 nM with CWR22R; 500 nM in the test on LnCaP; greater than 40000 nM in the test on tubulin. In addition, the “increase in activity compared to 7c” value in the test on Panc1 (Panc1) is listed as 39 fold; in the test with Miapaca2 (Miapaca2), 9 fold. Besides, the “cell lines with no colony formation at higher doses” value in test [1] is 9 of the 11. Also, the “potency relative to compound 1, prostate cell lines (preliminary screening)” value in test [2] is 20 times.

One may read the IC50 as the point on the concentration scale where inhibition reaches its midpoint.
